Measured values taken from patent US20210386709A1, “COMPOSITIONS AND METHODS FOR SUPPRESSING MSUT2” (United States Government As Represented By The Department …, priority 2020, published 2021).
Like-named read-outs stand apart in the source and are kept apart here. Each block holds one molecule with its values, some of them ahead of it. {FAM} = fluorescein amidite label

Columns and labels:
MSUT2 ZF = biological target: T1, MSUT2 ZF (Homo sapiens, UniProt Q6PJT7); assay: Fluorescence polarization assay of FAM-poly(A) RNA:MSUT2 ZF binding; conditions: for Ki / Ki (nm) for MSUT2: calculated by Cheng Prusof equation Ki=(IC50)/[(L/Kd)+1], FP dose response; for Ki: read-out: Ki (nm) for MSUT2
T1 construct: Targeted construct consisted of the c-terminal end (dark blue and amino acids 601-736) of MSUT2; made in house; host or cells: E. coli BL21 (DE3)
T1 sequence (Q6PJT7 601-736): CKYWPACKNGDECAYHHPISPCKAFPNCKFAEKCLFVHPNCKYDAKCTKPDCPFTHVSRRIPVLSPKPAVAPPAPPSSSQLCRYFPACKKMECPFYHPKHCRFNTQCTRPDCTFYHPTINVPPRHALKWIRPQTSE
Method: Fluorescence Polarization Assay. […] 2 μL of compound was transferred for a final concentration of 10 μM. […] Fluorescence polarization was calculated by first subtracting background from a buffer-only control well and then using the equation
Results and Discussion. A high-throughput fluorescence polarization assay for inhibition of poly(A):MSUT2 RNA interaction. […] In order to screen potential inhibitors of MSUT2 RBP and RNA by FP, fluorescent FAM (fluorescein amidite)-labeled poly(A)15 RNA (FAM-RNA) and recombinant MSUT2 ZF (zinc finger) protein expressing constructs were generated (FIG. 7a). […] Inhibition of the interaction results in unbound FAM-RNA tumbling at a relatively rapid rate and emitting non-polarized light (FIG. 7b).
(§1) To determine the concentrations of both MSUT2 ZF protein and FAM-RNA probe useful in the methods described herein, a two dimensional titration of protein and RNA concentrations in 96-well format was performed. […] Next, the binding constant between MSUT2 ZF and FAM-RNA was determined by holding FAM-RNA constant at 10 nM while increasing MSUT2 ZF concentration.
(§2) Identification and validation of MSUT2 inhibitory compounds from NIHCC library. […] IC50 of each of the previous 8 compounds was determined for PABPN1 using fluorescence polarization (FIG. 11), and a specificity ratio determined (Table 3). An Alpha Screen (AS) assay was developed as an orthogonal screen. Briefly, in this screen, biotinylated RNA binds streptavidin-coated donor beads, while GST-MSUT2 ZF binds glutathione-coated acceptor beads. When donor beads and acceptor beads are brought within close proximity of one another, laser excitation leads to fluorophore emission of the acceptor bead via excited singlet oxygen activating chemiluminescers in the acceptor beads. […] Toxicity of these compounds in a HEK cell model was determined using a standard Promega Cell Titer Glo assay.
(§3) Fluorescence Polarization Assay. […] of stock compound was transferred yielding 10 μM final concentration. […] Fluorescence polarization was calculated by first subtracting background from a buffer-only control well and then using the equation

PABPN1 [1] = biological target: T2, PABPN1 (Homo sapiens, UniProt Q86U42); assay: PABPN1 fluorescence polarization counter screen; assay type: binding; conditions: for IC50 / IC50PABPN1: fluorescence polarization counter screen; for IC50: unit inferred, read-out: IC50PABPN1; for PABPN1/MSUT2 specificity ratio: ratio of FP IC50s; for IC50PABPN1: unit not given
T2 construct: made in house; host or cells: E. coli BL21 (DE3)
T2 sequence (Q86U42 1-306): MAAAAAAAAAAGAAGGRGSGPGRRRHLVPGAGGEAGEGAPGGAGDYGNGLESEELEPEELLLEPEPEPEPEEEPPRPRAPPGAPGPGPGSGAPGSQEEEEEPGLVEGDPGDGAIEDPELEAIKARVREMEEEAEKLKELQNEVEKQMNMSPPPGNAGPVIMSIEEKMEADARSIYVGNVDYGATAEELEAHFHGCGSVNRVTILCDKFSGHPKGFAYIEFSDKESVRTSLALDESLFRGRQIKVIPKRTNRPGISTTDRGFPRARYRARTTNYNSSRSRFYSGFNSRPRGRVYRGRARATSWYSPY
Method: A drug repurposing strategy: screening of the NIH Clinical Collection compound library. […] The plan to find suitable lead compounds for drug repurposing began with a screen of the NIH Clinical Collection (NIHCC) library. The NIHCC consists of a diverse array of 700 compounds with historical pharmacological use and well-studied safety profiles. […] An orthogonal poly(A):MSUT2 binding assay allowed the ruling out of assay interference while selectivity against MSUT2 over PABPN1 was determined by a parallel FP assay with PABPN1 as the RBP. […] Thus, the goal was to eliminate compounds interfering with both PABN1 and MSUT2 and focus on compounds truly specific for poly(A):MSUT2 binding.
as §2, §3

HEK-293 cells = assay: Cell viability, Promega Cell Titer Glo
MSUT2 = biological target: T3, MSUT2 (Homo sapiens, UniProt Q6PJT7); conditions: read-out: Kd of MSUT2 for poly(A); cited from earlier work
T3 sequence (Q6PJT7 1-736): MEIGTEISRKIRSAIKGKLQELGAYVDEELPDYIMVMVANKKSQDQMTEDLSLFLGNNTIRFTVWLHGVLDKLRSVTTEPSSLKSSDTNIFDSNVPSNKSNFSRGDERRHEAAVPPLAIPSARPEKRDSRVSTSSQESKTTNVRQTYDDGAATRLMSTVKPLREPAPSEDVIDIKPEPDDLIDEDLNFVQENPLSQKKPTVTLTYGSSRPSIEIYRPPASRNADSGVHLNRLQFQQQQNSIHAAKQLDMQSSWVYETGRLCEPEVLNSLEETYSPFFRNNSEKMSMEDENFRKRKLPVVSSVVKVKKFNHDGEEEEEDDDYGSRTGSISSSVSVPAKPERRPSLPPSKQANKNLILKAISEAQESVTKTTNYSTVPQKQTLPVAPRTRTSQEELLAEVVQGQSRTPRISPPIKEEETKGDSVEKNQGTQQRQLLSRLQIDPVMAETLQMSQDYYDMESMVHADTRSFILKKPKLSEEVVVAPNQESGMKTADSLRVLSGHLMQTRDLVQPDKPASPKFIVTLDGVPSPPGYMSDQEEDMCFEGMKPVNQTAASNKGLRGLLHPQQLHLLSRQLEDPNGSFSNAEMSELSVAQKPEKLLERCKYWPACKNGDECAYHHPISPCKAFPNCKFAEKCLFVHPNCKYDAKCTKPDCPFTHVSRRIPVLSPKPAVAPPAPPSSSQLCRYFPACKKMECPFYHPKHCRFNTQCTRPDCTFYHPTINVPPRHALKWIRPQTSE

GST-MSUT2 = biological target: T4, GST-MSUT2 (Homo sapiens, UniProt Q6PJT7); assay: Alpha Screen assay of biotinylated poly(A) RNA:GST-MSUT2 binding; conditions: orthogonal dose-response validation
T4 construct: Targeted construct consisted of the c-terminal end (dark blue and amino acids 601-736) of MSUT2; made in house; host or cells: E. coli BL21 (DE3)
T4 sequence (Q6PJT7 601-736): T1 sequence (Q6PJT7 601-736)
Method: Alpha Screen Assay. Samples were set up in 384 well Perkin Elmer white opaque-bottom plates (PE06). A total reaction volume of […] was plated in 384 format using a CyBio Well Vario (6 μL of donor beads (10 μg/mL), 3 μL biotinylated RNA (250 nM), 3 μL GST-MSUT2 protein (250 nM) per well). 50 nL of compounds were transferred to wells via CyBio Vario equipped with Pin Tool. This mixture was incubated at room temperature for 30 minutes away from light. Next 3 μL of acceptor beads (1.25 μg/mL) was added. Plates were incubated at room temperature away from light for 60 minutes and subsequently read on a Perkin Elmer EnVision multimode microplate reader equipped with stackers using a standard 384-well Alpha Assay software protocol.
Results. Alpha Screen design and underlying principle. Alpha Screen technology relies on donor beads, coated with a hydrogel excitable by 680 nm, brought within close proximity to an acceptor bead leading to light emission and detection. In this assay, streptavidin coated donor beads tightly bind to biotinylated-poly(A) RNA while the glutathione-coated acceptor bead binds to GST-tagged MSUT2 protein. […] When this interaction is blocked by an inhibitor, the proximity threshold for donor and acceptor beads is not met, singlet oxygen transference cannot occur, and light is not emitted by the acceptor bead (FIG. 1a).
Identification and validation of MSUT2 inhibitory compounds from NIHCC library. The single-point primary screen was conducted in duplicate and utilized the FP assay conditions determined herein (e.g., 125 nM MSUT2 RNABP and 10 nM FAM-RNA probe) with 10 μM library compounds added in a 96-well format. […] Compound specificity was empirically tested by counter screening against PABPN1, a regulator of the length of mRNA poly(A) tails (Apponi, L. H. et al. Hum Mol Genet 19, 1058-1065, (2010); and Benoit, B. et al. Dev Cell 9, 511-522, (2005)). IC50 of each of the previous 8 compounds was determined for PABPN1 using fluorescence polarization (FIG. 11), and a specificity ratio determined (Table 3). An Alpha Screen (AS) assay was developed as an orthogonal screen. Briefly, in this screen, biotinylated RNA binds streptavidin-coated donor beads, while GST-MSUT2 ZF binds glutathione-coated acceptor beads. […] Toxicity of these compounds in a HEK cell model was determined using a standard Promega Cell Titer Glo assay.
Alpha Screen Assay. […] The plate was then incubated again at room temperature away from light for 60 minutes and subsequently read on a Perkin Elmer EnSight multimode microplate reader using a standard 96-well Alpha Assay protocol.

[2] = biological target: T5, MSUT2 ZF (ZC3H14 C-terminal CCCH zinc finger domain) (UniProt Q6PJT7 Q6PJT7:601-736); assay: competition; FP competition, 10 nM FAM-RNA and 125 nM MSUT2 ZF, PBS; conditions: tags: GST (pGEX-6P1)
T5 sequence: T1 sequence (Q6PJT7 601-736)
Method: as §1, §3

[3] = biological target: T5, MSUT2 ZF (ZC3H14 C-terminal CCCH zinc …); assay: FP; PBS, room temperature, 10 nM FAM-RNA; reported as affinity / binding constant; conditions: tags: GST (pGEX-6P1); label: 5' FAM
Method: as §1, §3

PABPN1 [4] = biological target: T6, PABPN1 (UniProt Q86U42 Q86U42:1-306); assay: Alpha Screen counter-screen; conditions: tags: GST (pGEX-6P1); label: 5' biotin
T6 sequence: T2 sequence (Q86U42 1-306)

Molecule: CCCCN1CCCC1CNC(=O)c1cc(C#N)c2ccccc2c1OC (stereo not drawn) [Nafadotride]
Ki (MSUT2 ZF): 867 nM
IC50 (PABPN1 [1]): 67700 nM
PABPN1/MSUT2 specificity ratio (PABPN1 [1]): 77.11

Molecule: O=C(O)C1=CC(=C(c2ccc(O)c(C(=O)O)c2)c2ccc(O)c(C(=O)O)c2)C=CC1=O [Aurin tricarboxylic acid]
toxicity (effect on cell viability) (HEK-293 cells; HEK-293, 72 hours, indicated concentrations): relatively high toxicity at high concentrations

Molecule: poly(A): poly(A) RNA, natural ligand of MSUT2 (AAAAAAAAAAAAAAA; RNA, backbone not given here)
Kd (MSUT2): 60 ± 15 nM

Ki (nm) for MSUT2 (MSUT2 ZF): failed dose
Molecule: CNCC[C@@H](Oc1ccccc1C)c1ccccc1 [Atomoxetine]

Molecule: FAM-RNA: fluorescent FAM (fluorescein amidite)-labeled poly(A)15 RNA probe (SEQ ID NO: 3) (AAAAAAAAAAAAAAA; RNA, 5' {FAM}, backbone not given here)
Kd (MSUT2 ZF; saturation assay, FAM-RNA constant at 10 nM, read-out: affinity for FAM-RNA:MSUT2 ZF interaction): 810 nM

Molecule: C[C@H]1CCC[C@H](O)CCCCCc2cc(O)cc(O)c2C(=O)O1 [Zeranol]
Ki (nm) for MSUT2 (MSUT2 ZF): failed DR

IC50 (PABPN1 [1]): 6570 nM
Molecule: CC(C(=O)O)c1ccc(-c2ccccc2)c(F)c1 (stereo not drawn) [Flurbiprofen]

Ki (MSUT2 ZF): 188 nM
IC50PABPN1 (PABPN1 [1]): None
inhibition activity by Alpha Screen (AS) (GST-MSUT2): dose-dependent inhibition activity
Molecule: CC(C)(C)NC(=O)[C@@H]1C[C@@H]2CCCC[C@@H]2CN1C[C@@H](O)[C@H](Cc1ccccc1)NC(=O)[C@H](CC(N)=O)NC(=O)c1ccc2ccccc2n1 [Saquinavir]
cell viability (HEK-293 cells; HEK, highest tested dose of 4004, normalized to 2% DMSO vehicle): 65%

Molecule: unlabeled poly(A)15 RNA: unlabeled poly(A) RNA 5′-AAAAAAAAAAAAAAA-3′ (SEQ ID NO: 2), positive control for inhibition (RNA, backbone not given here)
IC50 (MSUT2 ZF; 10 nM FAM-RNA:125 nM MSUT2 ZF, positive control, read-out: IC50 in FP competition assay): 320 nM

Ki (MSUT2 ZF): 916 nM
IC50 (MSUT2 ZF; read-out: IC50MSUT2): 927 nM
IC50 (PABPN1 [1]): 28900 nM
Molecule: CC(C)(C)NC(=O)[C@@H]1CN(Cc2cccnc2)CCN1C[C@@H](O)C[C@@H](Cc1ccccc1)C(=O)N[C@H]1c2ccccc2C[C@H]1O [Indinavir]

Ki (MSUT2 ZF): 573 nM
IC50 (PABPN1 [1]): 23700 nM
PABPN1/MSUT2 specificity ratio (PABPN1 [1]): 40.7931
Molecule: OCCOCCN1CCN(C(c2ccccc2)c2ccc(Cl)cc2)CC1 (stereo not drawn) [Hydroxyzine]

Ki (nm) for MSUT2 (MSUT2 ZF): failed DR
Molecule: O=C(N[C@H](CO)[C@H](O)c1ccc([N+](=O)[O-])cc1)C(Cl)Cl [Chloramphenicol]

Ki (MSUT2 ZF): 534 nM
IC50 (MSUT2 ZF; read-out: IC50MSUT2): 541 nM
IC50PABPN1 (PABPN1 [1]): None
Molecule: CN1C2CCCC1CC(NC(=O)c1nn(C)c3ccccc13)C2 (stereo not drawn) [Granisetron]

B1: poly(A)15 unlabeled (ssRNA)
RNA: AAAAAAAAAAAAAAA
IC50 [2]: 320 nM

B2: FAM-poly(A)15 (ssRNA)
RNA: AAAAAAAAAAAAAAA
Kd [3]: 810 nM

B3: biotin-poly(A)15 (ssRNA)
RNA: AAAAAAAAAAAAAAA
binding result (PABPN1 [4]): binds
